{
  "source": "ChEMBL document CHEMBL1201862",
  "about": "“PubChem BioAssay data set” (2004)",
  "assay_in_all_cases": "growth of human tumour cells (NCI), 48 h",
  "key": {"HL-60": {"system": "HL-60"}, "Hs-578T": {"system": "Hs-578T"}, "SNB-19": {"system": "SNB-19"}, "NCI-H522": {"system": "NCI-H522"}, "KM12": {"system": "KM12"}, "M14": {"system": "M14"}, "786-0": {"system": "786-0"}, "COLO 205": {"system": "COLO 205"}, "K562": {"system": "K562"}, "OVCAR-5": {"system": "OVCAR-5"}, "A549": {"system": "A549"}, "HCT-116": {"system": "HCT-116"}, "BT-549": {"system": "BT-549"}, "OVCAR-3": {"system": "OVCAR-3"}, "CCRF-CEM": {"system": "CCRF-CEM"}, "HOP-62": {"system": "HOP-62"}, "SK-MEL-28": {"system": "SK-MEL-28"}, "UACC-257": {"system": "UACC-257"}, "U-251": {"system": "U-251"}, "NCI-H226": {"system": "NCI-H226"}, "SK-OV-3": {"system": "SK-OV-3"}, "HCT-15": {"system": "HCT-15"}, "RPMI-8226": {"system": "RPMI-8226"}, "NCI-H23": {"system": "NCI-H23"}, "DU-145": {"system": "DU-145"}, "ACHN": {"system": "ACHN"}, "OVCAR-4": {"system": "OVCAR-4"}, "SF-539": {"system": "SF-539"}, "SR": {"system": "SR"}, "TK-10": {"system": "TK-10"}, "SK-MEL-5": {"system": "SK-MEL-5"}, "A498": {"system": "A498"}, "IGROV-1": {"system": "IGROV-1"}, "MDA-MB-231": {"system": "MDA-MB-231"}, "OVCAR-8": {"system": "OVCAR-8"}, "SN12C": {"system": "SN12C"}, "NCI-H460": {"system": "NCI-H460"}, "MCF7": {"system": "MCF7"}, "CAKI-1": {"system": "CAKI-1"}, "UO-31": {"system": "UO-31"}, "EKVX": {"system": "EKVX"}, "RXF 393": {"system": "RXF 393"}, "SF-268": {"system": "SF-268"}, "MDA-MB-435": {"system": "MDA-MB-435"}, "SK-MEL-2": {"system": "SK-MEL-2"}, "NCI/ADR-RES": {"system": "NCI/ADR-RES"}, "SW-620": {"system": "SW-620"}, "T47D": {"system": "T47D"}, "SNB-75": {"system": "SNB-75"}, "MOLT-4": {"system": "MOLT-4"}, "HT-29": {"system": "HT-29"}, "MDA-N": {"system": "MDA-N"}, "Malme-3M": {"system": "Malme-3M"}, "SF-295": {"system": "SF-295"}, "UACC-62": {"system": "UACC-62"}, "LOX IMVI": {"system": "LOX IMVI"}, "PC-3": {"system": "PC-3"}},
  "note": "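Where inhibition never reached the appropriate level, the endpoint shown equals the highest concentration tested. Otherwise, values were interpolated linearly from a five-concentration, 48-hour dose response in 96-well plates. GI50: concentration for 50% inhibition of growth.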 The source made the active and inactive calls. Cut-off read from the data, not from the text of the source: active = GI50 up to about 1.1 µM and inactive = higher.",
  "data": [
    {"smiles": "O=CNc1ncn[nH]1", "values": [
      {"measurement": "GI50", "setting": "HL-60", "value": "> 100 µM (inactive)"},
      {"measurement": "GI50", "setting": "Hs-578T", "value": "> 100 µM (inactive)"},
      {"measurement": "GI50", "setting": "SNB-19", "value": "> 100 µM (inactive)"},
      {"measurement": "GI50", "setting": "NCI-H522", "value": "> 100 µM (inactive)"},
      {"measurement": "GI50", "setting": "KM12", "value": "> 100 µM (inactive)"},
      {"measurement": "GI50", "setting": "M14", "value": "> 100 µM (inactive)"},
      {"measurement": "GI50", "setting": "786-0", "value": "> 100 µM (inactive)"},
      {"measurement": "GI50", "setting": "COLO 205", "value": "> 100 µM (inactive)"},
      {"measurement": "GI50", "setting": "K562", "value": "> 100 µM (inactive)"},
      {"measurement": "GI50", "setting": "OVCAR-5", "value": "> 100 µM (inactive)"},
      {"measurement": "GI50", "setting": "A549", "value": "> 100 µM (inactive)"},
      {"measurement": "GI50", "setting": "HCT-116", "value": "> 100 µM (inactive)"},
      {"measurement": "GI50", "setting": "BT-549", "value": "> 100 µM (inactive)"},
      {"measurement": "GI50", "setting": "OVCAR-3", "value": "> 100 µM (inactive)"},
      {"measurement": "GI50", "setting": "CCRF-CEM", "value": "> 100 µM (inactive)"},
      {"measurement": "GI50", "setting": "HOP-62", "value": "> 100 µM (inactive)"},
      {"measurement": "GI50", "setting": "SK-MEL-28", "value": "> 100 µM (inactive)"},
      {"measurement": "GI50", "setting": "UACC-257", "value": "> 100 µM (inactive)"},
      {"measurement": "GI50", "setting": "U-251", "value": "> 100 µM (inactive)"},
      {"measurement": "GI50", "setting": "NCI-H226", "value": "> 100 µM (inactive)"},
      {"measurement": "GI50", "setting": "SK-OV-3", "value": "> 100 µM (inactive)"},
      {"measurement": "GI50", "setting": "HCT-15", "value": "> 100", "unit": "µM"},
      {"measurement": "GI50", "setting": "RPMI-8226", "value": "> 100 µM (inactive)"},
      {"measurement": "GI50", "setting": "NCI-H23", "value": "> 100 µM (inactive)"},
      {"measurement": "GI50", "setting": "DU-145", "value": "> 100 µM (inactive)"},
      {"measurement": "GI50", "setting": "ACHN", "value": "> 100 µM (inactive)"},
      {"measurement": "GI50", "setting": "OVCAR-4", "value": "> 100 µM (inactive)"},
      {"measurement": "GI50", "setting": "SF-539", "value": "> 100 µM (inactive)"},
      {"measurement": "GI50", "setting": "SR", "value": "> 100 µM (inactive)"},
      {"measurement": "GI50", "setting": "TK-10", "value": "> 100 µM (inactive)"},
      {"measurement": "GI50", "setting": "SK-MEL-5", "value": "> 100 µM (inactive)"},
      {"measurement": "GI50", "setting": "A498", "value": "> 100 µM (inactive)"},
      {"measurement": "GI50", "setting": "IGROV-1", "value": "> 100 µM (inactive)"},
      {"measurement": "GI50", "setting": "MDA-MB-231", "value": "> 100 µM (inactive)"},
      {"measurement": "GI50", "setting": "OVCAR-8", "value": "> 100 µM (inactive)"},
      {"measurement": "GI50", "setting": "SN12C", "value": "> 100 µM (inactive)"},
      {"measurement": "GI50", "setting": "NCI-H460", "value": "> 100 µM (inactive)"},
      {"measurement": "GI50", "setting": "MCF7", "value": "> 100 µM (inactive)"},
      {"measurement": "GI50", "setting": "CAKI-1", "value": "> 100 µM (inactive)"},
      {"measurement": "GI50", "setting": "UO-31", "value": "> 100 µM (inactive)"},
      {"measurement": "GI50", "setting": "EKVX", "value": "> 100 µM (inactive)"},
      {"measurement": "GI50", "setting": "RXF 393", "value": "> 100 µM (inactive)"},
      {"measurement": "GI50", "setting": "SF-268", "value": "> 100 µM (inactive)"},
      {"measurement": "GI50", "setting": "MDA-MB-435", "value": "> 100 µM (inactive)"},
      {"measurement": "GI50", "setting": "SK-MEL-2", "value": "> 100 µM (inactive)"},
      {"measurement": "GI50", "setting": "NCI/ADR-RES", "value": "> 100 µM (inactive)"},
      {"measurement": "GI50", "setting": "SW-620", "value": "> 100 µM (inactive)"},
      {"measurement": "GI50", "setting": "T47D", "value": "> 100 µM (inactive)"},
      {"measurement": "GI50", "setting": "SNB-75", "value": "> 100 µM (inactive)"},
      {"measurement": "GI50", "setting": "MOLT-4", "value": "> 100 µM (inactive)"},
      {"measurement": "GI50", "setting": "HT-29", "value": "> 100 µM (inactive)"},
      {"measurement": "GI50", "setting": "MDA-N", "value": "> 100 µM (inactive)"},
      {"measurement": "GI50", "setting": "Malme-3M", "value": "> 100 µM (inactive)"},
      {"measurement": "GI50", "setting": "SF-295", "value": "> 100 µM (inactive)"},
      {"measurement": "GI50", "setting": "UACC-62", "value": "> 100 µM (inactive)"},
      {"measurement": "GI50", "setting": "LOX IMVI", "value": "> 100 µM (inactive)"},
      {"measurement": "GI50", "setting": "PC-3", "value": "> 100 µM (inactive)"}
    ]}
  ]
}
